In patent US20260248881A1, “PHARMACEUTICAL COMPOSITION COMPRISING FOXM1 INHIBITOR AND IMMUNE CHECKPOINT INHIBITOR FOR PREVENTING OR TREATING CANCER” (National Cancer Center, priority 2022, published 2026):

System: FOXM1 and PD-L1
Test: Immunoblotting of FOXM1 and PD-L1 after FDI-6 or RCM1 treatment
Type: cell-based, human
Settings: lung cancer cell line (PC9) and colorectal cancer cell line (SW480)
Procedure: Human lung cancer cell lines (H1299, PC9), colorectal cancer cell lines (HCT116, SW480), and brain tumor cell lines (U118) were purchased from the American Type Culture Collection (Manassas, VA, USA). H1299, PC9, U118, and SW480 cells were cultured in Roswell Park Memorial Institute (RPMI) medium supplemented with 10% FBS and 1% penicillin/streptomycin, and HCT116 cells were cultured in McCoy's 5A medium supplemented with 10% FBS and 1% penicillin/streptomycin. Cells were maintained at 37° C. in a humidified incubator with 5% CO2.
After washing, appropriate secondary antibodies conjugated to horseradish peroxidase were bound to the membrane, and protein bands were detected using a chemiluminescence kit (Thermo Fisher Scientific, Carlsbad, CA, USA).

SMILES: Nc1c(C(=O)Nc2ccc(F)cc2)sc2nc(-c3cccs3)cc(C(F)(F)F)c12 [FDI-6]
- FOXM1 and PD-L1 expression: significantly decreased
